From patent publication US11618743B2, “Herbicidal compounds” (SYNGENTA PARTICIPATIONS AG, priority 2017, dated 2023)

Key:
Experiment in all cases: Post-emergence efficacy, Method A
Assay type in all cases: in vivo
Eleusine indica (ELEIN) = details: Application rate 500 g/Ha, evaluated after 13 days; for Control of weed species after post-emergence application, ELEIN: 100=total damage to plant, 0=no damage; for Control of weed species ELEIN after post-emergence application (100=total damage to plant; 0=no damage to plant): Method A
Procedure, shortened: (§1)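 Plants grown 14 days in glasshouse (24/16° C., 14 h light, 65% humidity), then sprayed post-emergence with compound formulated in IF50 and diluted in 0.25% or 1% Empicol ESC70 + 1% ammonium sulphate. Damage scored after 13 days (0 none to 100 total).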

[1] = tested on: Digitaria sanguinalis (DIGSA); details: Application rate 500 g/Ha, evaluated after 13 days; for Control of weed species after post-emergence application, DIGSA: 100=total damage to plant, 0=no damage; for Control of weed species DIGSA after post-emergence application (100=total damage to plant; 0=no damage to plant): Method A
Procedure, shortened: as §1

[2] = tested on: Echinochloa crus-galli (ECHCG); details: Application rate 500 g/Ha, evaluated after 13 days; for Control of weed species after post-emergence application, ECHCG: 100=total damage to plant, 0=no damage; for Control of weed species ECHCG after post-emergence application (100=total damage to plant; 0=no damage to plant): Method A
Procedure, shortened: as §1

[3] = tested on: Amaranthus palmeri (AMAPA); details: Application rate 500 g/Ha, evaluated after 13 days; for Control of weed species after post-emergence application, AMAPA: 100=total damage to plant, 0=no damage; for Control of weed species AMAPA after post-emergence application (100=total damage to plant; 0=no damage to plant): Method A
Procedure, shortened: as §1

Setaria faberi (SETFA) = details: Application rate 500 g/Ha, evaluated after 13 days; for Control of weed species after post-emergence application, SETFA: 100=total damage to plant, 0=no damage; for Control of weed species SETFA after post-emergence application (100=total damage to plant; 0=no damage to plant): Method A
Procedure, shortened: as §1

[4] = tested on: Chenopodium album (CHEAL); details: Application rate 500 g/Ha, evaluated after 13 days; for Control of weed species after post-emergence application, CHEAL: 100=total damage to plant, 0=no damage; for Control of weed species CHEAL after post-emergence application (100=total damage to plant; 0=no damage to plant): Method A
Procedure, shortened: as §1

[5] = tested on: Euphorbia heterophylla (EPHHL); details: Application rate 500 g/Ha, evaluated after 13 days; for Control of weed species after post-emergence application, EPHHL: 100=total damage to plant, 0=no damage; for Control of weed species EPHHL after post-emergence application (100=total damage to plant; 0=no damage to plant): Method A
Procedure, shortened: as §1

SMILES | Control of weed species after post-emergence application, ELEIN (Eleusine indica (ELEIN)) | Control of weed species after post-emergence application, DIGSA [1] | Control of weed species after post-emergence application, ECHCG [2] | Control of weed species after post-emergence application, AMAPA [3] | Control of weed species after post-emergence application, SETFA (Setaria faberi (SETFA)) | Control of weed species after post-emergence application, CHEAL [4] | Control of weed species after post-emergence application, EPHHL [5] | Control of weed species ELEIN after post-emergence application (100=total damage to plant; 0=no damage to plant) (Eleusine indica (ELEIN)) | Control of weed species DIGSA after post-emergence application (100=total damage to plant; 0=no damage to plant) [1] | Control of weed species ECHCG after post-emergence application (100=total damage to plant; 0=no damage to plant) [2] | Control of weed species AMAPA after post-emergence application (100=total damage to plant; 0=no damage to plant) [3] | Control of weed species SETFA after post-emergence application (100=total damage to plant; 0=no damage to plant) (Setaria faberi (SETFA)) | Control of weed species CHEAL after post-emergence application (100=total damage to plant; 0=no damage to plant) [4] | Control of weed species EPHHL after post-emergence application (100=total damage to plant; 0=no damage to plant) [5]
Nc1cc(-c2cc[n+](CCC(=O)O)nc2)ccn1.O=C([O-])C(F)(F)F [Compound A210] | 20 | 60 | 10 | 70 | 30 | 10 | 10 |  |  |  |  |  |  | 
CC(CC(=O)O)[n+]1ccc(-c2ccncn2)cn1.O=C([O-])C(F)(F)F (centres unmarked) [Compound A172] | 70 | 80 | 50 | 30 | 50 | 60 | 50 |  |  |  |  |  |  | 
O=C(O)CC[n+]1ccc(-c2ncc(C(F)(F)F)cn2)cn1.O=C([O-])C(F)(F)F [Compound A129] |  |  |  |  |  |  |  | 40 | 60 | 90 | 70 | 60 | 50 | 70
CC(C(=O)OC(C)(C)C)[n+]1ccc(-c2ncccn2)cn1.O=C([O-])C(F)(F)F (centres unmarked) [Compound A193] | 30 | 30 | 10 | 70 | 10 | 60 | 60 |  |  |  |  |  |  | 
O=C(O)CC[n+]1ccc(-c2ncccc2Cl)cn1.O=C([O-])C(F)(F)F [Compound A149] |  |  |  |  |  |  |  | 60 | 50 | 50 | 30 | 40 | 40 | 30
O=C(O)CC[n+]1ccc(-c2ncc(C(F)(F)F)cc2Cl)cn1.O=C([O-])C(F)(F)F [Compound A197] | 10 | 20 | 0 | 100 | 0 | 10 | 10 |  |  |  |  |  |  | 
O=C([O-])C(F)(F)F.OCCC[n+]1ccc(-c2ncccn2)cn1 [Compound A206] | 10 | 20 | 20 | 60 | 10 | 90 | 60 |  |  |  |  |  |  | 
O=C(O)CC[n+]1ccc(-c2cc(C(F)(F)F)ncn2)cn1.O=C([O-])C(F)(F)F [Compound A119] |  |  |  |  |  |  |  | 30 | 40 | 30 | 100 | 40 | 100 | 70
